Assay results as given in US20230137932A1, “CYANO-PYRIMIDINE INHIBITORS OF EGFR/HER2” (Dana-Farber Cancer Institute, Inc., priority 2020, published 2023).
pIC50: −log10 of the molar value. Read-outs that look alike come from different tables or passages of the source.

Columns and labels:
VC = VC (Homo sapiens, UniProt P04626, DELINS776-776VC, cells depend on it); assay: Ba/F3 cell viability (MTS), VC; assay type: cell-based; settings: Table 5
Protocol: (§1) The IC50 values of the compounds provided herein were measured against kinases in Ba/F3 cells.
(§2) For assays with Ba/F3 cells, 3000 cells were seeded for per well in 96-well plates and were exposed to indicated compounds with a concentration of 3.3 to 10 μM for 72 hours.

exon19 = exon19 (Homo sapiens, UniProt P00533, cells depend on it, form not given); assay: Ba/F3 cell viability (MTS), exon19; assay type: cell-based; settings: Table 5
WLV = WLV (Homo sapiens, UniProt P04626, DELINS774-774WLV, cells depend on it); assay: Ba/F3 cell viability (MTS), WLV; assay type: cell-based; settings: Table 5
Protocol: as §1, §2

H = H (Homo sapiens, UniProt P00533, cells depend on it, form not given); assay: Ba/F3 cell viability (MTS), H; assay type: cell-based; settings: Table 5
Ba/F3 parental = assay: Ba/F3 cell viability (MTS), parental cells; assay type: cell-based, murine; settings: Mus musculus, BaF3, Table 3, 72 hours
Protocol: as §1, §2

EGFR SVD = target: T1, EGFR SVD (Homo sapiens, UniProt P00533, INS770SVD); assay: Ba/F3 cell viability (MTS), EGFR SVD; assay type: cell-based; settings: Ba/F3 cells, 72 hours
T1 construct: expressed in transfected cells; host or cells: Ba/F3 cells
Protocol: as §1, §2

EGFR ASV = target: T2, EGFR ASV (Homo sapiens, UniProt P00533, INS769ASV); assay: Ba/F3 cell viability (MTS), EGFR ASV; assay type: cell-based; settings: Ba/F3 cells, 72 hours
T2 construct: expressed in transfected cells; host or cells: Ba/F3 cells
Protocol: as §1, §2

exon19, sequence (P00533 with tags, fused parts or gaps DEL746-750): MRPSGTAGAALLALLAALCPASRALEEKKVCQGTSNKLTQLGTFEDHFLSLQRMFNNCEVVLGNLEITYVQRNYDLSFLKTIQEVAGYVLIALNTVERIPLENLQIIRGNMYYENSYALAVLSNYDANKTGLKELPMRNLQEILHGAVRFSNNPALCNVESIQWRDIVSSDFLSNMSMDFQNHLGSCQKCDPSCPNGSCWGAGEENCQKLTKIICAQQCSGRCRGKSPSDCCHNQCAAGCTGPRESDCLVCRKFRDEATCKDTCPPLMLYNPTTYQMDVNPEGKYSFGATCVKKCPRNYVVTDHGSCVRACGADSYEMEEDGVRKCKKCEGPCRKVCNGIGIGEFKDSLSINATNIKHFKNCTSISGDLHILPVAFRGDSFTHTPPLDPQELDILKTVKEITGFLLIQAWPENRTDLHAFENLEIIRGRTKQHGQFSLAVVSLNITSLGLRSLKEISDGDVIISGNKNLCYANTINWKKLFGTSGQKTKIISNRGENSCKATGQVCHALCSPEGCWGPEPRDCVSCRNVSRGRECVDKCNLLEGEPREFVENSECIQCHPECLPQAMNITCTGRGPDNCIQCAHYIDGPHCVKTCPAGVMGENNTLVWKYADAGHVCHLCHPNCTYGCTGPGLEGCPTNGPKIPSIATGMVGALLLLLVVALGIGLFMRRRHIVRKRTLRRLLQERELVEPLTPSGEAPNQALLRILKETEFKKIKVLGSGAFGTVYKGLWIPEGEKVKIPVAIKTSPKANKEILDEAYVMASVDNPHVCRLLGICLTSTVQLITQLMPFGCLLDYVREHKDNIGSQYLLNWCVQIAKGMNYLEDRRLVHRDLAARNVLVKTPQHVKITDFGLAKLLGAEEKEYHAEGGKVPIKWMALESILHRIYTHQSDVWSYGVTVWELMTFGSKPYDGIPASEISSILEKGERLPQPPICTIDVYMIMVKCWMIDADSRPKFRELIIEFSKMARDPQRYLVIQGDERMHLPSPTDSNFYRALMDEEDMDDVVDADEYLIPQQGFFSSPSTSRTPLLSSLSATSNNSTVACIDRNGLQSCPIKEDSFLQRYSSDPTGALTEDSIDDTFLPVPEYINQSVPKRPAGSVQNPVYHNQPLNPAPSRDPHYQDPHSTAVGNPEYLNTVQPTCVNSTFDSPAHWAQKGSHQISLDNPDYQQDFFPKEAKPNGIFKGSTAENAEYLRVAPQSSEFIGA
H, sequence (P00533 with tags, fused parts or gaps DUP773-773): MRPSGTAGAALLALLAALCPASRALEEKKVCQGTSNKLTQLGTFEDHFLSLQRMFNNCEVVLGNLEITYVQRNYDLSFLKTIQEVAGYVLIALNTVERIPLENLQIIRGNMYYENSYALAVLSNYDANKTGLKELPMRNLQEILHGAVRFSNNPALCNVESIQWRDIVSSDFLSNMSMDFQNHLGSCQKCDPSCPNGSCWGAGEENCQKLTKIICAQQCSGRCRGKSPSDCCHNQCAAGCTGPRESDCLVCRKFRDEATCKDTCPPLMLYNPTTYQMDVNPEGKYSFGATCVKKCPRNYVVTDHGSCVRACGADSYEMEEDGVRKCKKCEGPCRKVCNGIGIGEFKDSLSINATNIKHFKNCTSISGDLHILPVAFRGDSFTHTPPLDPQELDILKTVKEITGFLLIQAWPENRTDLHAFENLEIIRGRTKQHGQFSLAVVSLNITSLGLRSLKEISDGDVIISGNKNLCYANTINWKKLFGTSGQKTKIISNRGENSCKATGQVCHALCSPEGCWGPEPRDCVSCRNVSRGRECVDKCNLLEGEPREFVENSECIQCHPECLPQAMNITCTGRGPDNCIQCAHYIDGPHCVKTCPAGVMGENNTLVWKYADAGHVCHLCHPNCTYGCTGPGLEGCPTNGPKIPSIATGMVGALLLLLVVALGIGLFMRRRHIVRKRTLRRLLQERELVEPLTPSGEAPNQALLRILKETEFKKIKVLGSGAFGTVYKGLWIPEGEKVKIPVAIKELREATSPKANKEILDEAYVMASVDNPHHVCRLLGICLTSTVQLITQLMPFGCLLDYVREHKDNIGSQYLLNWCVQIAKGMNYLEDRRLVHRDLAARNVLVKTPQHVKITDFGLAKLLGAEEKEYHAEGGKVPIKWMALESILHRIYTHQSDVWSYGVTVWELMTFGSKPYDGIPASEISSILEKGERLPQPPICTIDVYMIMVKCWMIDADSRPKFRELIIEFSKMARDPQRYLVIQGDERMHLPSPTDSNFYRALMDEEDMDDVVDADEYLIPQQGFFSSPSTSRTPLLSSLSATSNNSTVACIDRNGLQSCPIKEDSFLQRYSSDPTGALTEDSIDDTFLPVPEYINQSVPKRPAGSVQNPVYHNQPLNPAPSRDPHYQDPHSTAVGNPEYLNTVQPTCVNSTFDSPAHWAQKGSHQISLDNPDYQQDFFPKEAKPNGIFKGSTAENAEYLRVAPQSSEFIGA
VC, sequence (P04626 with tags, fused parts or gaps DELINS776-776VC): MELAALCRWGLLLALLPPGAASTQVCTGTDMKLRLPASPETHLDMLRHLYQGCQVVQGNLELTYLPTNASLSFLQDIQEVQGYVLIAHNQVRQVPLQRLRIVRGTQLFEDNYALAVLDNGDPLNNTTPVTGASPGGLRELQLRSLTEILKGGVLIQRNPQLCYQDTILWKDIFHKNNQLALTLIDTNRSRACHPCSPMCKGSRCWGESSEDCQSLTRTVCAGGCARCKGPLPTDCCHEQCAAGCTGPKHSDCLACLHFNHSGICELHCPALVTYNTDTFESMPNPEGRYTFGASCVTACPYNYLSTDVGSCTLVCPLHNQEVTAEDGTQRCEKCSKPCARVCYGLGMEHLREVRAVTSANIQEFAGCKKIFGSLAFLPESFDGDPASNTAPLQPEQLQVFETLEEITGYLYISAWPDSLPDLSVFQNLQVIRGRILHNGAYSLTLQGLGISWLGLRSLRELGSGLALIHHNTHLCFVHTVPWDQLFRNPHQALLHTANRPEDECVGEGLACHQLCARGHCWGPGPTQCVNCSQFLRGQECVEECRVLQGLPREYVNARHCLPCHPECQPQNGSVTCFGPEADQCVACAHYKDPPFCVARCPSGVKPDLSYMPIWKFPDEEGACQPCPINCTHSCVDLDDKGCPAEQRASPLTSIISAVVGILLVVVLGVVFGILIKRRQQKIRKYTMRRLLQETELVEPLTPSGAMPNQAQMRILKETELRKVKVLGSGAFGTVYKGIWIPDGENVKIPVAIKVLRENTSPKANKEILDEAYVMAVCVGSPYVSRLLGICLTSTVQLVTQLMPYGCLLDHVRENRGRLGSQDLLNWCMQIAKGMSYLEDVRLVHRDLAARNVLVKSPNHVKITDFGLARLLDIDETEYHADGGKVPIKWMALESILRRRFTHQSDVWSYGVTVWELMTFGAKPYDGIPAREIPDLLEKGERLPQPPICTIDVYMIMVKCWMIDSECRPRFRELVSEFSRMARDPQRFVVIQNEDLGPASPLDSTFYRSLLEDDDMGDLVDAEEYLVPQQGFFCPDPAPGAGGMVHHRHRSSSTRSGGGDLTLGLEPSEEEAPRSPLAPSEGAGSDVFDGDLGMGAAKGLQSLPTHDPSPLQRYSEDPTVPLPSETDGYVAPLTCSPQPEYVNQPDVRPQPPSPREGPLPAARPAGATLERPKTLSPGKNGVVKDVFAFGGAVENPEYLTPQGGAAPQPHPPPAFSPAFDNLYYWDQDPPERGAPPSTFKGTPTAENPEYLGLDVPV
WLV, sequence (P04626 with tags, fused parts or gaps DELINS774-774WLV): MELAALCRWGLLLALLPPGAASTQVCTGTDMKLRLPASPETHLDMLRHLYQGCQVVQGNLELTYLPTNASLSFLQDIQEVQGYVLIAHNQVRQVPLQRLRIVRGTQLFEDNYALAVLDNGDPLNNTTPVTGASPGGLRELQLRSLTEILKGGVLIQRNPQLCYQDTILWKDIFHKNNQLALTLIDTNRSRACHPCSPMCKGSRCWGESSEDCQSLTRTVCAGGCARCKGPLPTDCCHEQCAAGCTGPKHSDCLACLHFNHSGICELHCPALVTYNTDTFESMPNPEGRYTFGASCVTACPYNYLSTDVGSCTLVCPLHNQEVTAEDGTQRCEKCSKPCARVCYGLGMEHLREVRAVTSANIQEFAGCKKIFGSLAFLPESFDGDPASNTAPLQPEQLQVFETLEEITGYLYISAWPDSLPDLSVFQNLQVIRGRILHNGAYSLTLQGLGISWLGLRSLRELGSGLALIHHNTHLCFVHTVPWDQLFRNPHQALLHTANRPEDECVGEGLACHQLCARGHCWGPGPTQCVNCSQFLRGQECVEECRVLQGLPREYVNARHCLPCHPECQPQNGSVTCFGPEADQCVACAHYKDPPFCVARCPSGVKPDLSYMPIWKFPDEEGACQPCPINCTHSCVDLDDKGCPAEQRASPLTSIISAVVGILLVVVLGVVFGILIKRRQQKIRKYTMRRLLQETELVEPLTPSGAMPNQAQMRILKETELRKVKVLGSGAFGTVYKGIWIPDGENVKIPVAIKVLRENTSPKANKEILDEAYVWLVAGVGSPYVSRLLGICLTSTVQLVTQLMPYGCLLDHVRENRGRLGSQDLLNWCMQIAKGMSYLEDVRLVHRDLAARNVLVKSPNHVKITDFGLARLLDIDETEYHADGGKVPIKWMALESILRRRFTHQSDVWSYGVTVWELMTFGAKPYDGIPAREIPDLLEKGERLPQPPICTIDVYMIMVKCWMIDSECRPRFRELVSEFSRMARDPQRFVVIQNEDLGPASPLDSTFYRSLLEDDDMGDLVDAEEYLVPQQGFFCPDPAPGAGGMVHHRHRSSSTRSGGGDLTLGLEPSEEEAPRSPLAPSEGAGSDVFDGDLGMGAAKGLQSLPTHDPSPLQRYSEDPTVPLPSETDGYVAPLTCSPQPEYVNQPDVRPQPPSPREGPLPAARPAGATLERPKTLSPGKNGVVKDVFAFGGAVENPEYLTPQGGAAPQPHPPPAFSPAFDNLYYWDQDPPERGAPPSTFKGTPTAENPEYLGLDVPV

SMILES | pIC50 (Ba/F3 parental) | other results
C=CC(=O)Nc1cc(Nc2ncc(C#N)c(Nc3ccc(Oc4ccn5ccnc5c4)c(C)c3)n2)c(OC)cc1N(C)CCN(C)C [Compound 022] | – | GI50 (VC): 0.00956 µM; GI50 (exon19): 0.000948 µM; GI50 (WLV): 0.0613 µM; GI50 (H): 0.0285 µM
C=CC(=O)Nc1cc(Nc2ncc(C#N)c(NC3C(C)C4CCC3C4(C)C)n2)c(OC)cc1N(C)CCN(C)C (stereo not shown) [Compound 016, N-(5-((5-cyano-4-((3,7,7-trimethylbicyclo[2.2.1]heptan-2-yl)amino)-pyrimidin-2-yl)amino)-2-((2-(dimethylamino)ethyl)(methyl)amino)-4-methoxyphenyl)-acrylamide] | 5.36 | –
C=CC(=O)Nc1cc(Nc2ncc(C#N)c(NC34CC(C(F)F)(C3)C4)n2)c(OC)cc1N(C)CCN(C)C [Compound 015, N-(5-(5-cyano-4-(3-(difluoromethyl)bicycle[1.1.1]pentan-1-ylamino)-pyrimidin-2-ylamino)-2-((2-(dimethylamino)ethyl)(methyl)amino)-4-methoxyphenyl)-acrylamide] | 5.20 | –
C=CC(=O)Nc1cc(Nc2ncc(C#N)c(N3CCC3)n2)c(OC)cc1N(C)CCN(C)C [Compound 021, N-(5-(4-(azetidin-1-yl)-5-cyanopyrimidin-2-ylamino)-2-((2-(dimethyl-amino)ethyl)(methyl)amino)-4-methoxyphenyl)acrylamide] | 5.22 | –
C=CC(=O)Nc1cc(Nc2ncc(OC)c(NC34CC(C3)C4)n2)c(OC)cc1N(C)CCN(C)C [Compound 018, N-(5-((4-(bicyclo[1.1.1]pentan-1-ylamino)-5-methoxypyrimidin-2-yl)amino)-2-((2-(dimethylamino)ethyl)(methyl)amino)-4-methoxyphenyl)acrylamide] | 5.04 | –
C=CC(=O)Nc1cc(Nc2ncc(C#N)c(Nc3ccc(Oc4ccn5ccnc5c4)c(C)c3)n2)c(OC)cc1N(C)C [Compound 029] | 5.06 | –
C=CC(=O)Nc1cc(Nc2ncc(C#N)c(NC3CCC3)n2)c(OC)cc1N(C)CCN(C)C [Compound 020] | 5.23 | –
C=CC(=O)Nc1cc(Nc2nccc(NC34CC(C3)C4)n2)c(OC)cc1N(C)CCN(C)C [Compound 017, N-(5-((4-(bicyclo[1.1.1]pentan-1-ylamino)pyrimidin-2-yl)amino)-2-((2-(dimethylamino)ethyl)(methyl)amino)-4-methoxyphenyl)acrylamide] | 5.64 | –
C=CC(=O)Nc1cc(Nc2nc(Nc3ccc(Oc4ccn5ccnc5c4)c(C)c3)ncc2C#N)c(OC)cc1N(C)CCN(C)C [Compound 027] | – | GI50 (VC): 0.317 µM; GI50 (exon19): 0.0447 µM; GI50 (WLV): 0.461 µM; GI50 (H): 0.445 µM
C=CC(=O)Nc1cc(Nc2ncc(C#N)c(Nc3cccc(C)c3)n2)c(OC)cc1N(C)CCN(C)C [Compound 014, N-(5-((5-cyano-4-(m-tolylamino)pyrimidin-2-yl)amino)-2-((2-(dimethyl-amino)ethyl)(methyl)amino)-4-methoxyphenyl)acrylamide] | 5.13 | –
C=CC(=O)Nc1cc(Nc2ncc(C#N)c(NC34CC(C3)C4)n2)c(OC)cc1N(C)CCN(C)C [Compound 013, N-(5-((4-(bicyclo[1.1.1]pentan-1-ylamino)-5-cyanopyrimidin-2-yl)amino)-2-((2-(dimethylamino)ethyl)(methyl)amino)-4-methoxyphenyl)acrylamide] | 5.34 | pIC50 (EGFR SVD; Table 2, read-out: Ba/F3 IC50 SVD): 8.21; pIC50 (EGFR SVD; Table 4, read-out: EGFR Ba/F3 SVD): 7.35; pIC50 (EGFR ASV; Table 2, read-out: Ba/F3 IC50 ASV): 8.29; pIC50 (EGFR ASV; Table 4, read-out: EGFR Ba/F3 ASV): 7.71
C=CC(=O)Nc1cc(Nc2ncc(C#N)c(NC34CC(CN(C)C)(C3)C4)n2)c(OC)cc1N1CCOCC1 [Compound 031] | 5.09 | –
C=CC(=O)Nc1cc(Nc2ncc(C3CC3)c(NC34CC(C3)C4)n2)c(OC)cc1N(C)CCN(C)C [Compound 019, N-(5-((4-(bicyclo[1.1.1]pentan-1-ylamino)-5-cyclopropylpyrimidin-2-yl)amino)-2-((2-(dimethylamino)ethyl)(methyl)amino)-4-methoxyphenyl)acrylamide] | 5.37 | –
CCC(=O)Nc1cc(Nc2ncc(C#N)c(NC34CC(C3)C4)n2)c(OC)cc1N(C)CCN(C)C [Compound 028, N-(5-((4-(bicyclo[1.1.1]pentan-1-ylamino)-5-cyanopyrimidin-2-yl)amino)-2-((2-(dimethylamino)ethyl)(methyl)amino)-4-methoxyphenyl)propionamide] | 4.98 | –
C=CC(=O)Nc1cc(Nc2ncc(C#N)c(Nc3ccc(Oc4ccn5ccnc5c4)c(C)c3)n2)c(OC)cc1N1CC(N(C)C)C1 [Compound 030] | 5.00 | –
